Source: PMC10644327, “A randomized, double‐blind phase 1b study evaluating the safety, tolerability, pharmacokinetics and pharmacodynamics of the NLRP3 inhibitor selnoflast in patients with moderate to severe active ulcerative colitis” (Clinical and Translational Medicine, 2023)
Read-outs that look alike come from different tables or passages of the source.

Assays:
[1] = cited from earlier work; for Tolerability: healthy subjects, single doses 20-600 mg and multiple doses up to 450 mg QD for 7 days, ref unpublished results, study IZD334-001
[2] = system: sigmoid colon tissue; test: Histology of sigmoid colon biopsies (Geboes score, Nancy index, neutrophils); format: in vivo, human
Method: Tissue biopsies from the sigmoid colon were obtained before start of treatment (up to Day −3) and at the end of treatment (Day 7). For operational reasons, biopsies were taken 2−4.5 h post‐dose on Day 7. Stool samples were obtained at screening, before start of treatment, throughout the study, and at the 14‐day follow‐up visit. Levels of calprotectin were determined in stool samples. Sigmoid colon tissue was processed for RNA and DNA extraction as well as for single‐cell analysis, subsequent transcriptomic analysis, and identification of PD biomarkers. Sigmoid colon tissue samples were also processed for histology (hematoxylin and eosin staining, immunohistochemistry, fluorescence in situ hybridization) in order to characterize the cell types present (i.e., neutrophils and inflammatory monocytes). Histological analysis was performed on sigmoid colon tissue samples (from baseline and Day 7) using the disease‐specific histological indices Geboes score[23] and Nancy index.[24] Caspase‐1 (pro and active form) was assessed using a validated WES‐assay (manuscript in preparation).

[3] = system: Breast Cancer Resistance Protein (BCRP); set-up: method as in Investigator Brochure; settings: in vitro studies; ref Investigator Brochure; cited from earlier work
[4] = system: P-glycoprotein (P-gP); set-up: method as in Investigator Brochure; settings: in vitro studies; ref Investigator Brochure; cited from earlier work
[5] = set-up: method as in Investigator Brochure; settings: ref Investigator Brochure, cited from earlier work
[6] = Safety and tolerability in patients with ulcerative colitis; format: in vivo, human
Description: The primary objective of this study was to evaluate the PK, safety, and tolerability of selnoflast. The main endpoints were the incidence and severity of adverse events (AEs), changes in vital signs, 12‐lead electrocardiogram (ECG) parameters, and clinical laboratory safety parameters. AEs were monitored throughout the study and at the 14‐day follow‐up visit. Safety assessments included recording of the incidence and type of treatment‐emergent adverse events (TEAEs), discontinuations, serious TEAEs, and adverse events of special interest (AESIs) (including cases of elevated alanine aminotransferase [ALT] or aspartate aminotransferase [AST] in combination with either elevated bilirubin or clinical jaundice). Vital signs, ECGs, blood chemistry and hematology panels, coagulation panels and urinalysis were assessed at screening and at various time points during the study. Changes in absolute lymphocyte count were also assessed. Blood samples for PK analyses were obtained pre‐dose and at various timepoints up to 24 h post‐dose throughout the 7‐day in‐clinic treatment period, as well as once during the 14‐day follow‐up visit. As the 1‐week duration of the study was too short for assessing clinical changes, no clinical assessments were planned. Further details are given in the study protocol (Supporting Information).

[7] = Selnoflast plasma pharmacokinetics in UC patients (LC‐MS/MS, non‐compartmental); format: in vivo, human; settings: for Tmax / concentration at 24 h / Cmax / half-life / AUC: 450 mg; for concentration at 24 h: read-out: Ctrough
Method: Selnoflast (450 mg QD or matching placebo) was administered orally in the morning following an overnight fast of at least 8 h during the patients’ 7‐day clinic stay. Water intake was restricted for 1 h pre‐dose and 1 h post‐dose, and no food was allowed until at least 4 h post‐dose.
The concentrations of selnoflast were determined in a total of 260 human plasma samples (obtained during the study) using a validated liquid chromatography‐tandem mass spectrometry (LC‐MS/MS) method. Sample analysis was performed after the addition of the internal standard by protein precipitation followed by LC‐MS/MS. The calibration range was between 40.0 ng/mL and 40000.0 ng/mL; the lower limit of quantification in human plasma was 40.0 ng/mL. Study samples were analyzed within the validated frozen storage stability timeframe of 371 days at −20°C and −70°C, the five validated freeze/thaw cycles, and proven room temperature storage stability of 24 h, in a total of six analytical runs. Five out of six runs met the acceptance criteria. The precision and accuracy (expressed as %RE) of the assay, as determined from the analysis of quality control samples, was satisfactory throughout the study.
All randomized patients were included in the intent‑to‑treat population. All patients completed all doses of study treatment and all were included in the safety, PK and PD analyses. Safety data were grouped according to treatment received and were tabulated and/or listed, as appropriate. PK parameters (including Tmax, Cmax, Ctrough, total exposure, drug accumulation, clearance, volume of distribution and T1/2) were extrapolated directly from the plasma concentration‐versus‐time profiles or calculated using standard non‐compartmental methods. PK and PD parameters were summarized and presented descriptively.

[8] = cited from earlier work
[9] = system: cells isolated from the sigmoid colon; test: Single‐cell RNA sequencing of sigmoid colon tissue; format: in vivo, human; settings: pseudobulk method, baseline and Day 7
Method: Single cell suspensions were obtained from cryopreserved sigmoid colon tissue samples through mechanical and enzymatic dissociation, and loaded onto a 10X chromium controller for cell partitioning. Single‐cell RNA‐sequencing libraries were prepared using 10X genomics NextGEM single‐cell 3′ version 3.1 reagents and sequenced on an Illumina NovaSeq 6000 sequencer. Quality control, data filtering, and data analysis was performed with the BESCA software (version 2.5.1)[27] and the RiBIOS software suite, as well as using custom scripts in both R (version 4.2.0) and Python (version 3.8).

[10] = 450 mg QD repeat dosing, UC patients
[11] = human, plasma, po, 450 mg QD oral, fasted, UC patients N = 13, Day 1, geometric mean (CV% geo mean)
[12] = human, plasma, po, 450 mg QD oral, fasted, UC patients N = 13, steady‐state (Day 5), geometric mean (CV% geo mean)

## CCN1CCC(S(=O)(=O)NC(=O)Nc2c3c(cc4c2CCC4)CCC3)CC1 [Selnoflast, selnoflast]
[1]; HVs in the Phase I clinical study, ref Investigator Brochure
  Bacterial, viral, fungal, and other opportunistic infections: No evidence
[1]; MAD part, volunteers who received RO7486967, no clear dose dependency, not clinically significant, ref Study IZD334-001
  Healthy volunteers with mild transaminase increase: 4 out of 18
[1]
  Tolerability: well tolerated
[1]; listed as RO7486967
  Tolerability: safe and well tolerated
[2]; baseline and Day 7
  Geboes score and Nancy index, difference between study arms: No notable differences
[2]; mean (± SD), active treatment arm, Day 7
  Neutrophils in sigmoid colon tissue, change from baseline: −13.23 (± 140.76) cells/mm^2
[2]; selnoflast‐treated patients, Day 7
  Patients with marked reduction from baseline in neutrophils in sigmoid colon tissue: Three out of the 13
[3]
  BCRP substrate status: potential substrate
[4]
  P-gp substrate status: potential substrate
[5]; at therapeutically relevant concentrations, based on in vitro assessments
  Potential to cause direct hepatotoxicity: low
[5]; in vitro
  Mitochondrial toxicity: did not show mitochondrial toxicity
[6]; N = 13
  Deaths: 0
  Patients with at least one AE with fatal outcome: 0
[6]; human, in vivo, 7 days
  AEs considered treatment‐related: 23.1%
  Dyspepsia, patients: 15.4%
  Headache, patients: 15.4%
  Patients with at least one AE leading to dose modification/interruption: 0
  Patients with at least one AE leading to withdrawal from treatment: 0
  Patients with at least one Related AE: 3 (23.1%)
  Patients with at least one Related AE leading to dose modification/ interruption: 0
  Patients with at least one Related AE leading to withdrawal from treatment: 0
  Patients with at least one Serious AE: 0
  Patients withdrawn from study due to AE: 0
  Severity of AEs: mild (Grade 1), with the exception of one AE of Grade 2 severity
[7]; 450 mg QD oral, fasted, UC patients N = 13, Day 1 (Clast, 24 h), geometric mean (CV% geo mean)
  Ctrough: 2.55 (38.8) μg/mL
[7]; 450 mg QD oral, fasted, UC patients N = 13, Day 1, geometric mean (CV% geo mean)
  CL/F: 1.82 (17.5) L/h
[7]; 450 mg QD oral, fasted, UC patients N = 13, steady‐state (Day 5) (Clast, 24 h), geometric mean (CV% geo mean)
  Ctrough: 2.66 (46.6) μg/mL
[7]; 450 mg QD oral, fasted, UC patients N = 13, steady‐state (Day 5), geometric mean (CV% geo mean)
  CL/F: 1.68 (21.0) L/h
[7]; [10]
  Accumulation: increase in AUCtau from Day 1 to Day 5: 8.6%
  Accumulation: increase in Clast from Day 1 to Day 5: 4.3%
  Accumulation: increase in Cmax from Day 1 to Day 5: 17%
[7]; 450 mg QD, UC patients
  Steady‐state achieved: Day 2
[7]; human, plasma, oral, UC patients in the present study, read-out: Median Tmax
  Tmax: 1 to 2 h
[7]; human, plasma, po, 450 mg QD oral, fasted, UC patients N = 13, Day 1 (Clast, 24 h), geometric mean (CV% geo mean)
  concentration at 24 h: 2550 ng/mL
[7]; [11]
  Cmax: 25000 ng/mL
  half-life: 6.9 h
[7]; human, plasma, po, 450 mg QD oral, fasted, UC patients N = 13, Day 1, geometric mean (CV% geo mean), read-out: AUC0‐inf
  AUC: 275 µg·h/mL
[7]; human, plasma, po, 450 mg QD oral, fasted, UC patients N = 13, Day 1, geometric mean (CV% geo mean), read-out: AUCtau
  AUC: 247 µg·h/mL
[7]; human, plasma, po, 450 mg QD oral, fasted, UC patients N = 13, Day 1, median (range), read-out: Tmax
  Tmax: 1.97 h
[7]; human, plasma, po, 450 mg QD oral, fasted, UC patients N = 13, steady‐state (Day 5) (Clast, 24 h), geometric mean (CV% geo mean)
  concentration at 24 h: 2660 ng/mL
[7]; [12]
  Cmax: 29300 ng/mL
  half-life: 6.93 h
[7]; human, plasma, po, 450 mg QD oral, fasted, UC patients N = 13, steady‐state (Day 5), geometric mean (CV% geo mean), read-out: AUCtau
  AUC: 268 µg·h/mL
[7]; human, plasma, po, 450 mg QD oral, fasted, UC patients N = 13, steady‐state (Day 5), median (range), read-out: Tmax
  Tmax: 1 h
[7]; human, plasma, 450 mg QD oral, fasted, UC patients N = 13, Day 1, geometric mean (CV% geo mean), read-out: Vz/F
  Vd/F: 18.1 L
[8]; healthy subjects, 20 to 600 mg, ref unpublished results, IZD334‐001
  Dose dependence of systemic exposure: approximately dose‐proportional
[8]; healthy subjects, single administration, 20 to 600 mg, fasted, ref unpublished results, IZD334‐001
  Median Tmax: 0.5 to 6.0 h
[8]; healthy subjects, ref unpublished results, IZD334‐001
  Steady‐state achieved: Day 2
[8]; healthy volunteers, repeat dosing for 7 days, ref study IZD334-001
  Change in exposure on repeat dosing: no indication of a change
[8]; healthy volunteers, ref study IZD334-001
  half-life: approximately 7 hours
[9]
  Cellular composition and gene expression, difference between treatment arms: No significant differences
